Results on one compound are retold here after patent US20100317849A1, “Process For Producing Pure And Stable Form Of 2-Methyl-4-(4-Methyl-1-Piperazinyl) -10H-Thieno[2,3-B] [1,5] Benzodiazepine” (priority 2006, published 2010).

“Also recorded” adds a separate entry of the source.

For data set [1] the following is noted: cited from earlier work.
Data set [2] in a line: Stability of Olanzapine Form I at stressed conditions (40° C./75% RH), HPLC purity, total impurity and colour (UV absorbance at 430 nm). Format: physicochemical.
Assay in data set [3]: as above
Format: physicochemical. As to conditions: for Absorbance at 430 nm Log I/Io: colour; for Stability under stressed conditions: stressed conditions (40° C.). The protocol:
The colour of Olanzapine is determined by following method:
Olanzapine 50 mg was dissolved in 50 ml 0.1 N HCl in methanol, which was diluted to prepare 100 μgm/ml, 200 μgm/ml, 500 μgm/ml of Olanzapine solution. […] Calibration curve was plotted between absorbance and concentration.
% of Colour=Amount of colour from calibration curve×100/Weight of sample taken.

Take `Cc1cc2c(s1)Nc1ccccc1N=C2N1CCN(C)CC1` [Olanzapine Form I, 2-methyl-4-(4-methyl-1-piperazinyl)-10H-thieno[2,3-b][1,5]benzodiazepine]: the “Stability / colour on standing” value in data set [1] (Form I crystallized from acetonitrile per U.S. Pat. No. 5,229,382, on standing) is “metastable and changes its color on standing”. Moreover, in data set [1] (Form I prepared from alcoholic solvent, U.S. Pat. No. 6,906,062, room temperature), the “Stability at room temperature” value was “stable form at room temperature”. In addition, the “Impurity Profile Chromatographic purity %” value in data set [2] (30 DAYS/40° C./75% RH) is 99.94%; in data set [2] (60 DAYS/40° C./75% RH), 99.96%; in data set [2] (120 DAYS/40° C./75% RH), 99.95%; in data set [2] (180 DAYS/40° C./75% RH), 99.93%; in data set [2] (Initial), 99.97%. In addition, the “Impurity Profile Total Imp. % age” value is given as 0.06 % age in data set [2] (30 DAYS/40° C./75% RH); 0.04 % age in data set [2] (60 DAYS/40° C./75% RH); 0.05 % age in data set [2] (120 DAYS/40° C./75% RH); 0.07 % age in data set [2] (180 DAYS/40° C./75% RH); 0.03 % age in data set [2] (Initial). Further, the “Absorbance at 430 nm Log I/Io” value in data set [2] (30 DAYS/40° C./75% RH, colour) amounted to 0.402; in data set [3] (60 DAYS/40° C./75% RH), 0.407; in data set [3] (120 DAYS/40° C./75% RH), 0.4034; in data set [3] (180 DAYS/40° C./75% RH), 0.4026; in data set [3] (Initial) it was 0.4. Further, in data set [3] (high temperature (40° C.), high moisture or stress conditions), the “Colour stability upon storage” value is recorded as “colour stable; also recorded: stable colour”. The “Stability under stressed conditions” value in data set [3] (listed as Form I) is “highly stable”; in data set [3] (listed as olanzapine) it was “high stability”.
